Tested on: MV-4-11 cells
Assay: Gene expression microarray analysis (Affymetrix PrimeView) and GSEA
Format: cell-based, human
Parameters: RFU PODN (11730768_x_at) / Fold change /veh PODN (11730768_x_at) / RFU LINC00158 (11744669_a_at) / Fold change /veh LINC00158 (11744669_a_at) / RFU DUSP10 (11751237_a_at) / Fold change /veh DUSP10 (11751237_a_at) / RFU ID3 (11757404_x_at) / Fold change /veh ID3 (11757404_x_at) / RFU PLEKHG5 (11737974_s_at) / Fold change /veh PLEKHG5 (11737974_s_at) / RFU LRRC4B (11730491_at) / Fold change /veh LRRC4B (11730491_at) / RFU GIMAP4 (11747438_a_at) / Fold change /veh GIMAP4 (11747438_a_at) / RFU KRT8 (11758183_x_at) / Fold change /veh KRT8 (11758183_x_at) / RFU CNN1 (11734310_a_at) / Fold change /veh CNN1 (11734310_a_at) / RFU VPS37D (11726825_at) / Fold change /veh VPS37D (11726825_at) / RFU C10orf10 (11716522_x_at) / Fold change /veh C10orf10 (11716522_x_at) / RFU KIR2DL2 /// KIR2DL4 /// KIR2DL5A /// KIR2DL5B /// KIR2DS1 /// KIR2DS2 /// KIR2DS3 /// KIR2DS4 /// KIR3DL3 /// KIR3DL3 /// KIR3DS1 (11738374_at) / Fold change /veh KIR2DL2 /// KIR2DL4 /// KIR2DL5A /// KIR2DL5B /// KIR2DS1 /// KIR2DS2 /// KIR2DS3 /// KIR2DS4 /// KIR3DL3 /// KIR3DL3 /// KIR3DS1 (11738374_at) / RFU C1QL1 (11718748_at) / Fold change /veh C1QL1 (11718748_at) / RFU TMPRSS4 (11747572_a_at) / Fold change /veh TMPRSS4 (11747572_a_at) / RFU HAMP (11756126_x_at) / Fold change /veh HAMP (11756126_x_at) / RFU RNFT2 (11725882_a_at) / Fold change /veh RNFT2 (11725882_a_at) / RFU NR4A2 (11747474_a_at) / Fold change /veh NR4A2 (11747474_a_at) / RFU ABCC12 (11746883_a_at) / Fold change /veh ABCC12 (11746883_a_at) / RFU TMEM136 (11760407_x_at) / Fold change /veh TMEM136 (11760407_x_at) / RFU CLDN22 /// WWC2 (11732394_at) / Fold change /veh CLDN22 /// WWC2 (11732394_at) / RFU HLA-DPB1 (11760878_x_at) / Fold change /veh HLA-DPB1 (11760878_x_at) / RFU SPINT1 (11716480_a_at) / Fold change /veh SPINT1 (11716480_a_at) / RFU GAP43 (11754022_s_at) / Fold change /veh GAP43 (11754022_s_at) / RFU A4GNT (11735810_at) / Fold change /veh A4GNT (11735810_at) / RFU PRB3 (11715151_x_at) / Fold change /veh PRB3 (11715151_x_at) / RFU TUBB4B (11761932_at) / Fold change /veh TUBB4B (11761932_at) / RFU CAPN14 (11732068_a_at) / Fold change /veh CAPN14 (11732068_a_at) / RFU TMCC2 (11721928_a_at) / Fold change /veh TMCC2 (11721928_a_at) / RFU IRGQ (11745062_a_at) / Fold change /veh IRGQ (11745062_a_at) / RFU FAM174B (11720279_a_at) / Fold change /veh FAM174B (11720279_a_at) / RFU TMPRSS4 (11748680_a_at) / Fold change /veh TMPRSS4 (11748680_a_at) / RFU FAM212B (11763350_a_at) / Fold change /veh FAM212B (11763350_a_at) / RFU PLEKHG5 (11743358_a_at) / Fold change /veh PLEKHG5 (11743358_a_at) / RFU ZSCAN30 (11745921_a_at) / Fold change /veh ZSCAN30 (11745921_a_at) / RFU CMKLR1 (11741424_a_at) / Fold change /veh CMKLR1 (11741424_a_at) / RFU LOC101060620 /// MAPK8IP1 (11723275_at) / Fold change /veh LOC101060620 /// MAPK8IP1 (11723275_at) / RFU SPTSSB (11747773_x_at) / Fold change /veh SPTSSB (11747773_x_at) / RFU PRSS12 (11739890_at) / Fold change /veh PRSS12 (11739890_at) / RFU BIN1 (11741810_x_at) / Fold change /veh BIN1 (11741810_x_at) / RFU WNT11 (11732464_a_at) / Fold change /veh WNT11 (11732464_a_at) / RFU C10orf10 (11716521_a_at) / Fold change /veh C10orf10 (11716521_a_at) / RFU C5orf56 (11738089_at) / Fold change /veh C5orf56 (11738089_at) / RFU CYB561 (11721691_x_at) / Fold change /veh CYB561 (11721691_x_at) / RFU ANKRD19P (11752326_a_at) / Fold change /veh ANKRD19P (11752326_a_at) / RFU OR2T12 /// OR2T33 /// OR2T8 (11738714_s_at) / Fold change /veh OR2T12 /// OR2T33 /// OR2T8 (11738714_s_at) / RFU VCAN (11748164_a_at) / Fold change /veh VCAN (11748164_a_at) / RFU JSRP1 (11732532_at) / Fold change /veh JSRP1 (11732532_at) / RFU KRTAP10-11 (11738290_x_at) / Fold change /veh KRTAP10-11 (11738290_x_at) / RFU MYO3A (11730013_a_at) / Fold change /veh MYO3A (11730013_a_at) / RFU EBF3 (11725865_a_at) / Fold change /veh EBF3 (11725865_a_at) / RFU CAMK2N1 (11719241_x_at) / Fold change /veh CAMK2N1 (11719241_x_at) / RFU C5orf56 (11738088_a_at) / Fold change /veh C5orf56 (11738088_a_at) / RFU OLFML3 (11715873_a_at) / Fold change /veh OLFML3 (11715873_a_at) / RFU LOC100653217 /// NTM (11731650_a_at) / Fold change /veh LOC100653217 /// NTM (11731650_a_at) / RFU MAPK11 (11762145_a_at) / Fold change /veh MAPK11 (11762145_a_at) / RFU FIZ1 (11724087_x_at) / Fold change /veh FIZ1 (11724087_x_at) / RFU OASL (11726364_x_at) / Fold change /veh OASL (11726364_x_at) / RFU SOX15 (11748057_x_at) / Fold change /veh SOX15 (11748057_x_at) / RFU CD79A (11719716_a_at) / Fold change /veh CD79A (11719716_a_at) / RFU HIST1H1D (11736915_at) / Fold change /veh HIST1H1D (11736915_at) / RFU CASKIN2 (11723855_a_at) / Fold change /veh CASKIN2 (11723855_a_at) / RFU LOC730098 (11760151_x_at) / Fold change /veh LOC730098 (11760151_x_at) / RFU OR4N2 (11742367_at) / Fold change /veh OR4N2 (11742367_at) / RFU PRRT2 (11749266_a_at) / Fold change /veh PRRT2 (11749266_a_at) / RFU SNX32 (11753110_a_at) / Fold change /veh SNX32 (11753110_a_at) / RFU CDHR5 (11726645_a_at) / Fold change /veh CDHR5 (11726645_a_at) / RFU RCAN1 (11760418_a_at) / Fold change /veh RCAN1 (11760418_a_at) / RFU FAM167A (11723789_a_at) / Fold change /veh FAM167A (11723789_a_at) / RFU FAM26E (11764081_at) / Fold change /veh FAM26E (11764081_at) / RFU ISYNA1 (11749810_s_at) / Fold change /veh ISYNA1 (11749810_s_at) / RFU ACY1 (11761880_at) / Fold change /veh ACY1 (11761880_at) / RFU 11764098_at / Fold change /veh 11764098_at / RFU SAMD14 (11745864_x_at) / Fold change /veh SAMD14 (11745864_x_at) / RFU NPB (11741838_a_at) / Fold change /veh NPB (11741838_a_at) / RFU TMPRSS6 (11731388_a_at) / Fold change /veh TMPRSS6 (11731388_a_at) / RFU KRTAP10-2 (11738614_at) / Fold change /veh KRTAP10-2 (11738614_at) / RFU ARHGAP8 /// PRR5-ARHGAP8 (11727945_x_at) / Fold change /veh ARHGAP8 /// PRR5-ARHGAP8 (11727945_x_at) / RFU KRTAP5-7 /// NADSYN1 (11734609_at) / Fold change /veh KRTAP5-7 /// NADSYN1 (11734609_at) / RFU RASL12 (11751679_a_at) / Fold change /veh RASL12 (11751679_a_at) / RFU CDKN2B (11736163_a_at) / Fold change /veh CDKN2B (11736163_a_at) / RFU PRF1 (11729649_at) / Fold change /veh PRF1 (11729649_at) / RFU, ZNF638 /// ZNF638-IT1 / Fold change vs veh, ZNF638 /// ZNF638-IT1 / RFU, PANK3 / Fold change vs veh, PANK3 / RFU, SH3YL1 / Fold change vs veh, SH3YL1 / RFU, ZEB2 / Fold change vs veh, ZEB2 / RFU, NRIP1 / Fold change vs veh, NRIP1 / RFU, PTTG1IP / Fold change vs veh, PTTG1IP / RFU, CAPN2 / Fold change vs veh, CAPN2 / RFU, MED14 / Fold change vs veh, MED14 / RFU, SNORA58 / Fold change vs veh, SNORA58 / RFU, C1orf63 / Fold change vs veh, C1orf63 / RFU, LRRFIP1 / Fold change vs veh, LRRFIP1 / RFU, NDUFAF7 / Fold change vs veh, NDUFAF7 / RFU, SLC12A2 / Fold change vs veh, SLC12A2 / RFU, IBTK / Fold change vs veh, IBTK / RFU, ESF1 / Fold change vs veh, ESF1 / Fold change vs veh, TMEM50B / RFU, TAOK1 / Fold change vs veh, TAOK1 / RFU, ACBD3 / Fold change vs veh, ACBD3 / RFU, TMA16 / Fold change vs veh, TMA16 / RFU, RWDD3 / Fold change vs veh, RWDD3 / RFU, BCAT1 / Fold change vs veh, BCAT1 / RFU, EDEM3 / Fold change vs veh, EDEM3 / RFU, TMEM33 / Fold change vs veh, TMEM33 / RFU, WDR75 / Fold change vs veh, WDR75 / RFU, AHCTF1 / Fold change vs veh, AHCTF1 / RFU, TFRC / Fold change vs veh, TFRC / RFU, ZDHHC17 / Fold change vs veh, ZDHHC17 / RFU, NOM1 / Fold change vs veh, NOM1 / RFU, ARL8B / Fold change vs veh, ARL8B / RFU, ZBTB11 / Fold change vs veh, ZBTB11 / RFU, TAMM41 / Fold change vs veh, TAMM41 / RFU, KIAA1704 /// LOC100996395 / Fold change vs veh, KIAA1704 /// LOC100996395 / RFU, ING1 / Fold change vs veh, ING1 / RFU, TRMT61B / Fold change vs veh, TRMT61B / RFU, FUBP3 / Fold change vs veh, FUBP3 / RFU, TP53 / Fold change vs veh, TP53 / RFU, TNKS2 / Fold change vs veh, TNKS2 / RFU, ZFP14 / Fold change vs veh, ZFP14 / RFU, ACTR2 / Fold change vs veh, ACTR2 / RFU, PPP3R1 / Fold change vs veh, PPP3R1 / RFU, PIK3R1 / Fold change vs veh, PIK3R1 / RFU, HNRNPA1 / Fold change vs veh, HNRNPA1 / RFU, RNF170 / Fold change vs veh, RNF170 / RFU, ZNF28 / Fold change vs veh, ZNF28 / RFU, RNGTT / Fold change vs veh, RNGTT / RFU, OGT / Fold change vs veh, OGT / RFU, BRD1 / Fold change vs veh, BRD1 / RFU, MARS / Fold change vs veh, MARS / RFU, ZNF655 / Fold change vs veh, ZNF655 / RFU, FAHD1 / Fold change vs veh, FAHD1 / RFU, BDP1 / Fold change vs veh, BDP1 / RFU, LRRCC1 / Fold change vs veh, LRRCC1 / RFU, ARID1A / Fold change vs veh, ARID1A / RFU, ZNF146 / Fold change vs veh, ZNF146 / RFU, ZNF330 / Fold change vs veh, ZNF330 / RFU, GPN3 / Fold change vs veh, GPN3 / RFU, C9orf123 / Fold change vs veh, C9orf123 / RFU, N4BP2L2 / Fold change vs veh, N4BP2L2 / RFU, ARFIP1 / Fold change vs veh, ARFIP1 / RFU, FAM179B / Fold change vs veh, FAM179B / RFU, BCL10 / Fold change vs veh, BCL10 / RFU, UHRF1BP1L / Fold change vs veh, UHRF1BP1L / RFU, BET1 / Fold change vs veh, BET1 / RFU, CNOT2 / Fold change vs veh, CNOT2 / RFU, ZNF268 / Fold change vs veh, ZNF268 / Fold change vs veh, ZNF507 / RFU, DGCR2 / Fold change vs veh, DGCR2 / RFU, WDSUB1 / Fold change vs veh, WDSUB1 / Fold change vs veh, HSP90B1 /// MIR3652 / RFU, ADSS / Fold change vs veh, ADSS / RFU, GK / Fold change vs veh, GK / RFU, ZNF148 / Fold change vs veh, ZNF148 / RFU, TAF9 / Fold change vs veh, TAF9 / RFU, SLC1A5 / Fold change vs veh, SLC1A5 / RFU, SLMO2 / Fold change vs veh, SLMO2 / RFU, ABCC4 / Fold change vs veh, ABCC4 / RFU, LOC101060439 /// RAP1B / Fold change vs veh, LOC101060439 /// RAP1B / RFU, RFX7 / Fold change vs veh, RFX7 / RFU, GTPBP10 / Fold change vs veh, GTPBP10 / RFU, CNEP1R1 / Fold change vs veh, CNEP1R1 / RFU, BIVM-ERCC5 /// ERCC5 / Fold change vs veh, BIVM-ERCC5 /// ERCC5 / RFU, ILF3 / Fold change vs veh, ILF3 / RFU 11762660_at / Fold change /veh 11762660_at / RFU VCAN (11757783_s_at) / Fold change /veh VCAN (11757783_s_at) / RFU DDX43 (11728927_at) / Fold change /veh DDX43 (11728927_at) / RFU KRT8 (11758188_x_at) / Fold change /veh KRT8 (11758188_x_at) / RFU NKD1 (11759106_at) / Fold change /veh NKD1 (11759106_at) / RFU SRD5A1 (11742802_a_at) / Fold change /veh SRD5A1 (11742802_a_at) / RFU TPSAB1 /// TPSB2 (11721975_s_at) / Fold change /veh TPSAB1 /// TPSB2 (11721975_s_at) / RFU GSTM3 (11746129_a_at) / Fold change /veh GSTM3 (11746129_a_at) / RFU IL23R (11737362_x_at) / Fold change /veh IL23R (11737362_x_at) / RFU TMEM51 (11727254_a_at) / Fold change /veh TMEM51 (11727254_a_at) / RFU PIWIL2 (11732686_x_at) / Fold change /veh PIWIL2 (11732686_x_at) / RFU ORM1 (11744905_x_at) / Fold change /veh ORM1 (11744905_x_at) / RFU CCDC152 (11743942_at) / Fold change /veh CCDC152 (11743942_at) / RFU ECM1 (11717891_a_at) / Fold change /veh ECM1 (11717891_a_at) / RFU IL23R (11748794_a_at) / Fold change /veh IL23R (11748794_a_at) / RFU TNFAIP8L3 (11732012_x_at) / Fold change /veh TNFAIP8L3 (11732012_x_at) / RFU MBOAT4 (11741988_at) / Fold change /veh MBOAT4 (11741988_at) / RFU 11764193_at / Fold change /veh 11764193_at / RFU TMEM53 (11763286_at) / Fold change /veh TMEM53 (11763286_at) / RFU MAGEB2 (11727129_at) / Fold change /veh MAGEB2 (11727129_at) / RFU TMEM200A (11744735_a_at) / Fold change /veh TMEM200A (11744735_a_at) / RFU CCDC152 (11751479_a_at) / Fold change /veh CCDC152 (11751479_a_at) / RFU FAM211A (11726209_a_at) / Fold change /veh FAM211A (11726209_a_at) / RFU RGS16 (11746705_a_at) / Fold change /veh RGS16 (11746705_a_at) / RFU VCAN (11755009_s_at) / Fold change /veh VCAN (11755009_s_at) / RFU RHOB (11743442_s_at) / Fold change /veh RHOB (11743442_s_at) / RFU RGS16 (11720943_a_at) / Fold change /veh RGS16 (11720943_a_at) / RFU RGS16 (11720944_at) / Fold change /veh RGS16 (11720944_at) / RFU, VPS4B / Fold change vs veh, VPS4B / RFU, CREB1 / Fold change vs veh, CREB1 / RFU, DNAJC13 / Fold change vs veh, DNAJC13 / RFU, GNAQ / Fold change vs veh, GNAQ / RFU, CDK5R1 / Fold change vs veh, CDK5R1 / RFU, ZRANB3 / Fold change vs veh, ZRANB3 / RFU, CUL4A / Fold change vs veh, CUL4A / RFU, CCNY / Fold change vs veh, CCNY / RFU, UFL1 / Fold change vs veh, UFL1 / RFU, COG3 / Fold change vs veh, COG3 / RFU, DIAPH2 / Fold change vs veh, DIAPH2 / RFU, SKA2 / Fold change vs veh, SKA2 / RFU, AFF3 / Fold change vs veh, AFF3 / RFU, LMF1 / Fold change vs veh, LMF1 / RFU, IPO11 / Fold change vs veh, IPO11 / RFU, DFFB / Fold change vs veh, DFFB / RFU, FOXP1 / Fold change vs veh, FOXP1 / RFU, CARD8 / Fold change vs veh, CARD8 / RFU, STRN3 / Fold change vs veh, STRN3 / RFU, ADK / Fold change vs veh, ADK / RFU, RASSF2 / Fold change vs veh, RASSF2 / RFU, WIPF1 / Fold change vs veh, WIPF1 / RFU, LARP1B / Fold change vs veh, LARP1B / RFU, RASA1 / Fold change vs veh, RASA1 / RFU, RB1 / Fold change vs veh, RB1 / RFU, PPFIA1 / Fold change vs veh, PPFIA1 / RFU, MAT2A / Fold change vs veh, MAT2A / RFU, CCT5 / Fold change vs veh, CCT5 / RFU, WDR92 / Fold change vs veh, WDR92 / RFU, CUX1 / Fold change vs veh, CUX1 / RFU, TTC7A / Fold change vs veh, TTC7A / RFU, TMEM135 / Fold change vs veh, TMEM135 / RFU, DEPTOR / Fold change vs veh, DEPTOR / RFU, CPM / Fold change vs veh, CPM / RFU, DNAJB6 / Fold change vs veh, DNAJB6 / RFU, CACNA2D3 / Fold change vs veh, CACNA2D3 / RFU, DTX4 / Fold change vs veh, DTX4 / RFU, TFCP2 / Fold change vs veh, TFCP2 / RFU, GMCL1 /// GMCL1P1 / Fold change vs veh, GMCL1 /// GMCL1P1 / RFU, AEBP2 / Fold change vs veh, AEBP2 / RFU, SNHG1 /// SNORD22 /// SNORD25 /// SNORD26 /// SNORD27 /// SNORD28 /// SNORD29 /// SNORD31 / Fold change vs veh, SNHG1 /// SNORD22 /// SNORD25 /// SNORD26 /// SNORD27 /// SNORD28 /// SNORD29 /// SNORD31 / Fold change (Aza/veh), C12orf56 (ProbeSet 11735607_a_at) / Fold change (ACY-1035/veh), C12orf56 (ProbeSet 11735607_a_at) / Fold change (Aza/veh), FGFR1OP (ProbeSet 11751329_s_at) / Fold change (ACY-1035/veh), FGFR1OP (ProbeSet 11751329_s_at) / Fold change (Aza/veh), VPS36 (ProbeSet 11739960_a_at) / Fold change (ACY-1035/veh), VPS36 (ProbeSet 11739960_a_at) / RFU SYPL1 (11715823_x_at) / Fold change /veh SYPL1 (11715823_x_at) / RFU IGFBP7 (11715501_s_at) / Fold change /veh IGFBP7 (11715501_s_at) / RFU REEP3 (11722064_at) / Fold change /veh REEP3 (11722064_at) / RFU IGLL1 (11728026_x_at) / Fold change /veh IGLL1 (11728026_x_at): dose or concentration left out as unconfirmed
Conditions: ProbeSet 11759094_a_at; LIST D

`Nc1ccc(-c2cccs2)cc1NC(=O)c1ccc2c(c1)cc(C1CC1)n2CCN1CCOCC1` [ACY-1035] was tested. Which “RFU, GNAQ” value did it give?
Its value is 492.28 RFU.

Reference: publication PMC5218480 (PLoS ONE, 2017)
